Assay results from patent US20250215101A1, “DR5 Agonist and PLK1 Inhibitor or CDK Inhibitor Combination Therapy” (Inhibrx Biosciences, Inc., priority 2022, published 2025).

How the values were obtained:
H-EMC-SS = assay: Cell viability (CellTiter-Glo) cytotoxicity assay, INBRX-109 x CDK9 or MCL-1 inhibitor matrix, 48 h, chondrosarcoma line
Description: (§1) On day 1, cells were seeded as follows. Monolayer cultures of each cell line (chondrosarcoma: CAL-78, OUMS-27, SW1353, and H-EMC-SS; colorectal cancer: SW620; and synovial sarcoma: HS-SY-II) were harvested for compound screening. Culture medium was aspirated, and the cells were washed once with PBS. Accutase was added and flasks were incubated at 37° C. until cells became detached. An equal volume of complete medium was added to quench the Accutase, and the cells were then pipetted up and down several times to generate a homogenous single cell suspension. The density and viability of cells was determined by Trypan Blue using a TC20 Automated Cell Counter. Experimental cells were resuspended to a concentration of 0.17×10^6/mL in Eagle's Minimum Essential Medium (EMEM)/10% FBS/Anti-Anti media (complete EMEM) and seeded in the inner wells of 384-well luminescence plates at 15 mL/well (2,500/well final). Each cell line was plated in duplicate on separate plates. Outer wells were filled with 50 mL PBS, then plates were incubated in a humidified temperature-controlled 37° C. tissue culture incubator at 5% CO2 overnight for 16 hours.
(§2) These test articles were added, in duplicate, to each cell line. The plates were then centrifuged at 400×g for 1 minute, then incubated in a 37° C. humidity-controlled tissue culture incubator (5% CO2) for 48 hours.
(§3) After incubation with the test articles, viability measurements were taken, briefly. Plates were equilibrated to room temperature for 10 minutes, then 25 μL of CellTiter-Glo 2.0® was added to each well. Plates were spun for 1 minute at 400×g, then covered and incubated in the dark for 10 minutes at room temperature. Any visible bubbles were removed with 100% ethanol vapor, then luminescence (RLU) was read on the Spectra Max M5e plate reader, using the 384-well opaque plate setting and SoftMax® Pro v5.4 software with an integration time of 50 milliseconds. To determine the effect of test articles on cell viability, raw RLU values were exported to Excel and percent survival was calculated as a percentage of vehicle control (0.5% DMSO in EMEM), where the vehicle control is set at 100%. Data was graphed in GraphPad Prism 9.

[1] = tested on: CAL-78, OUMS-27, SW1353, H-EMC-SS, SW620, HS-SY-II; assay: Cytotoxicity screens INBRX-109 + CDK9 or MCL-1 inhibitor, summary over the cell lines; type: cell-based; details: combination with INBRX-109
Source text: Data was graphed in GraphPad Prism 9.

CAL-78 = assay: Cell viability (CellTiter-Glo) cytotoxicity assay, INBRX-109 x CDK9 or MCL-1 inhibitor matrix, 48 h, chondrosarcoma line
Description: as §1, §2, §3

SW620 = assay: Cell viability (CellTiter-Glo) cytotoxicity assay, INBRX-109 x CDK9 or MCL-1 inhibitor matrix, 48 h, colorectal cancer line
Description: as §1, §2, §3

HS-SY-II = assay: Cell viability (CellTiter-Glo) cytotoxicity assay, INBRX-109 x CDK9 or MCL-1 inhibitor matrix, 48 h, synovial sarcoma line
Description: as §1, §2, §3

OUMS-27 = assay: Cell viability (CellTiter-Glo) cytotoxicity assay, INBRX-109 x CDK9 or MCL-1 inhibitor matrix, 48 h, chondrosarcoma line
Description: as §1, §2, §3

SW1353 = assay: as above
Description: as §1, §2, §3

CDK9 = CDK9 (Homo sapiens, UniProt P50750); details: cited from earlier work
[2] = concentrations of 125 nM or higher

Sequence of CDK9 (P50750 whole entry): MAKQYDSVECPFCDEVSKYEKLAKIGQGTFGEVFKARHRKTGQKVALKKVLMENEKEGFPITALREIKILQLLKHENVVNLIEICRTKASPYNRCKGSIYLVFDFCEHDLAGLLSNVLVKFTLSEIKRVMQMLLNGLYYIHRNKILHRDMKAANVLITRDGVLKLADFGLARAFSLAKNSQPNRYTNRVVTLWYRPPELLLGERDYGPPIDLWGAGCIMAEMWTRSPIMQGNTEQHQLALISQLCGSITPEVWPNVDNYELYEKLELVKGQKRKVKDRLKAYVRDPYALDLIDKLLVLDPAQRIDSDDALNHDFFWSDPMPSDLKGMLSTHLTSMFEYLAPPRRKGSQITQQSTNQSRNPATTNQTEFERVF
Sequence of CDK9 (O60563 whole entry partner): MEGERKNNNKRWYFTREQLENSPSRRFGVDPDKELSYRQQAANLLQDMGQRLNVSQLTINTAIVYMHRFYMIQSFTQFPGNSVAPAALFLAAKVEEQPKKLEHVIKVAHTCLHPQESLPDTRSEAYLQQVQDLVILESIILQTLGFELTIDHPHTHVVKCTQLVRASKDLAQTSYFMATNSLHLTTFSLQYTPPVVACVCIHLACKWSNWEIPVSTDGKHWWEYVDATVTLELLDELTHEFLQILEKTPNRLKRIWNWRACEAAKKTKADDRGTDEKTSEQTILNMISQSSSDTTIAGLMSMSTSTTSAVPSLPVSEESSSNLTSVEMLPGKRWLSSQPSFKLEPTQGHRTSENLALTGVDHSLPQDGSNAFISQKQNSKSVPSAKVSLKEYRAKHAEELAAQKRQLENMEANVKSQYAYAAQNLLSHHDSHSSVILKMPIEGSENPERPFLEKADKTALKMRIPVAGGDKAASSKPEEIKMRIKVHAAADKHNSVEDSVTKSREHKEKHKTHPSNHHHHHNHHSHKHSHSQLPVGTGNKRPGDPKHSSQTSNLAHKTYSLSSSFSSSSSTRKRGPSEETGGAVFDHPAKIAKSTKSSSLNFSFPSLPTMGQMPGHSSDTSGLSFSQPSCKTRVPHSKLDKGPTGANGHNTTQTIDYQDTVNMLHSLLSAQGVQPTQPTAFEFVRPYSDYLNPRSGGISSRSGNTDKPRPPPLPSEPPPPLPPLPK

SMILES: COc1cc(F)ccc1-c1cc(Nc2cc(CS(C)(=N)=O)ccn2)ncc1F (centres unmarked) [Enitociclib]
- EC50 (H-EMC-SS; enitociclib + 1 nM INBRX-109): 114 nM
- Max Cytotox (H-EMC-SS; enitociclib + 1 nM INBRX-109): 99.2%
- EC50 (H-EMC-SS; enitociclib only): 124 nM
- Max Cytotox at 125 nM (H-EMC-SS; enitociclib only): 15.8%
- cell killing by the combination [1]: increased cell killing on nearly every cancer cell line tested
- combination effect (shift in the killing curves of INBRX-109) [1, 2]: synergistic effect
- EC50 (CAL-78; enitociclib + 1 nM INBRX-109): 108 nM
- Max Cytotox (CAL-78; enitociclib + 1 nM INBRX-109): 90.8%
- EC50 (CAL-78; enitociclib only): 144 nM
- Max Cytotox at 125 nM (CAL-78; enitociclib only): 10.9%
- EC50 (SW620; enitociclib + 1 nM INBRX-109): 39.3 nM
- Max Cytotox (SW620; enitociclib + 1 nM INBRX-109): 97.6%
- EC50 (SW620; enitociclib only): 25.8 nM
- Max Cytotox at 125 nM (SW620; enitociclib only): 27.3%
- EC50 (HS-SY-II; enitociclib + 1 nM INBRX-109): 89.1 nM
- Max Cytotox (HS-SY-II; enitociclib + 1 nM INBRX-109): 94%
- EC50 (HS-SY-II; enitociclib only): 74 nM
- Max Cytotox at 125 nM (HS-SY-II; enitociclib only): 73.2%
- EC50 (OUMS-27; enitociclib + 1 nM INBRX-109): 90.4 nM
- Max Cytotox (OUMS-27; enitociclib + 1 nM INBRX-109): 81%
- EC50 (OUMS-27; enitociclib only): 51 nM
- Max Cytotox at 125 nM (OUMS-27; enitociclib only): 25.6%
- EC50 (SW1353; enitociclib + 1 nM INBRX-109): 103 nM
- Max Cytotox (SW1353; enitociclib + 1 nM INBRX-109): 64.6%
- EC50 (SW1353; enitociclib only): 102 nM
- Max Cytotox at 125 nM (SW1353; enitociclib only): 28.0%

SMILES: CN1CC[C@H](c2c(O)cc(O)c3c(=O)cc(-c4ccccc4Cl)oc23)[C@H](O)C1 [Flavopiridol]
- EC50 (H-EMC-SS; flavopiridol + 1 nM INBRX-109): 53.9 nM
- Max Cytotox (H-EMC-SS; flavopiridol + 1 nM INBRX-109): 99%
- EC50 (H-EMC-SS; flavopiridol only): 114 nM
- Max Cytotox at 125 nM (H-EMC-SS; flavopiridol only): 21.9%
- cell killing by the combination [1]: increased cell killing on nearly every cancer cell line tested
- combination effect (shift in the killing curves of INBRX-109) [1, 2]: synergistic effect
- EC50 (CAL-78; flavopiridol + 1 nM INBRX-109): 115 nM
- EC50 (CAL-78; flavopiridol only): 146 nM
- Max Cytotox at 125 nM (CAL-78; flavopiridol only): 10.9%
- EC50 (SW620; flavopiridol + 1 nM INBRX-109): 50.2 nM
- Max Cytotox (SW620; flavopiridol + 1 nM INBRX-109): 98.7%
- EC50 (SW620; flavopiridol only): Unstable
- Max Cytotox at 125 nM (SW620; flavopiridol only): 21.7%
- EC50 (HS-SY-II; flavopiridol + 1 nM INBRX-109): 103 nM
- Max Cytotox (HS-SY-II; flavopiridol + 1 nM INBRX-109): 95.1%
- EC50 (HS-SY-II; flavopiridol only): 108 nM
- Max Cytotox at 125 nM (HS-SY-II; flavopiridol only): 55.8%
- EC50 (OUMS-27; flavopiridol + 1 nM INBRX-109): 118 nM
- Max Cytotox (OUMS-27; flavopiridol + 1 nM INBRX-109): 87.8%
- EC50 (OUMS-27; flavopiridol only): 109 nM
- Max Cytotox at 125 nM (OUMS-27; flavopiridol only): 24.0%
- EC50 (SW1353; flavopiridol + 1 nM INBRX-109): 133 nM
- Max Cytotox (SW1353; flavopiridol + 1 nM INBRX-109): 88.3%
- EC50 (SW1353; flavopiridol only): 202 nM
- Max Cytotox at 125 nM (SW1353; flavopiridol only): 21.7%

SMILES: COC[C@@H](C)N[C@H]1CC[C@H](Nc2cc(-c3cccc(NCC4(C#N)CCOCC4)n3)c(Cl)cn2)CC1 [NVP-2]
- EC50 (H-EMC-SS; NVP-2 + 1 nM INBRX-109): 24.5 nM
- Max Cytotox (H-EMC-SS; NVP-2 + 1 nM INBRX-109): 98.7%
- EC50 (H-EMC-SS; NVP-2 only): 23.5 nM
- Max Cytotox at 125 nM (H-EMC-SS; NVP-2 only): 46.4%
- cell killing by the combination [1]: increased cell killing on nearly every cancer cell line tested
- combination effect (shift in the killing curves of INBRX-109) ([1]; concentrations higher than 25 nM): synergistic effect
- EC50 (CAL-78; NVP-2 + 1 nM INBRX-109): 26.4 nM
- Max Cytotox (CAL-78; NVP-2 + 1 nM INBRX-109): 92.4%
- EC50 (CAL-78; NVP-2 only): 23.2 nM
- Max Cytotox at 125 nM (CAL-78; NVP-2 only): 42.2%
- EC50 (SW620; NVP-2 + 1 nM INBRX-109): 4.91 nM
- Max Cytotox (SW620; NVP-2 + 1 nM INBRX-109): 98.7%
- EC50 (SW620; NVP-2 only): 12.6 nM
- Max Cytotox at 125 nM (SW620; NVP-2 only): 39.5%
- EC50 (OUMS-27; NVP-2 + 1 nM INBRX-109): 16.3 nM
- Max Cytotox (OUMS-27; NVP-2 + 1 nM INBRX-109): 88.5%
- EC50 (OUMS-27; NVP-2 only): 9 nM
- Max Cytotox at 125 nM (OUMS-27; NVP-2 only): 20.4%
- EC50 (SW1353; NVP-2 + 1 nM INBRX-109): 22.3 nM
- Max Cytotox (SW1353; NVP-2 + 1 nM INBRX-109): 79.5%
- EC50 (SW1353; NVP-2 only): 30.6 nM
- Max Cytotox at 125 nM (SW1353; NVP-2 only): 52.8%

SMILES: N[C@H]1CC[C@H](Nc2cc(-c3cccc(NCc4cccc(F)c4)n3)c(Cl)cn2)CC1 [i-CDK9]
- selectivity for CDK9 over other CDKs (CDK9): 600 fold
